# Assays:
# [1] = Photostability test (UV-A 356 nm, 1H NMR); format: physicochemical; set-up: key: 4 = No qualitative change in ^1H NMR spectrum; 3 = Minute noise but no qualitative change in ^1H NMR spectrum; 2 = Clear noise and some qualitative change in ^1H NMR spectrum; 1 = Qualitative confirmation is difficult in ^1H NMR spectrum; conditions: room temperature
# Protocol: In order to examine photostability of the compound of formula (1) compared with retinol, 10 mg of sample was irradiated by UV-A light (wavelength 356 nm) using a Spectroline (Model CM-10; Fluorescence analysis cabinet; Spectronics Corporation, Westbury, N.Y., USA) at certain intervals of time at room temperature.
# RAR γ = molecular target: T1, RAR γ (Homo sapiens, UniProt P13631); experiment: Activity for RAR γ (CAT reporter in HaCaT cells); format: cell-based; conditions: 1 μM, CAT ELISA
# T1 construct: expressed in transfected cells; host or cells: HaCaT
# T1 sequence (P13631 1-454): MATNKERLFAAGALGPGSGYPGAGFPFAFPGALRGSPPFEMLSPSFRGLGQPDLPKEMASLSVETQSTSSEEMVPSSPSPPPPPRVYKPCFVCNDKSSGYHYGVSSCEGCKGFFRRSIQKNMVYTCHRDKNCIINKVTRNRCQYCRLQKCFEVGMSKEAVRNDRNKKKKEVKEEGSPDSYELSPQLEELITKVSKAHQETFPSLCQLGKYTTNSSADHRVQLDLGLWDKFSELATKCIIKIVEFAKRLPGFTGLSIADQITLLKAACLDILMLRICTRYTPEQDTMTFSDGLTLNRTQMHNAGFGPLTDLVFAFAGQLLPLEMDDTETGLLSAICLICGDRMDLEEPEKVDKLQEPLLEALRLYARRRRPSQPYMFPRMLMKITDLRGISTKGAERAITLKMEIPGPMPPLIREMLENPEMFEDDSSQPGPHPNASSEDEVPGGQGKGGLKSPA
# Protocol: (§1) The effect of the retinol derivatives on the activity of RAR and RXR was examined as follows.
# (§2) Experimental procedure: Recombinant gene of DR5-tk-CAT or DR1-tk-CAT comprising DR1 or DR5 as a response element of RAR/RXR, […] promoter, and CAT (chloramphenicol acetyl transferase) was suitably combined with a plasmid DNA that expresses RAR α, β, γ and cotransfected to HaCaT cell line, a skin cancer cell line, with Lipofectamin (GibcoBRL). Then, the cells were incubated in DMEM/10% FBS medium for 1 day, retinol derivative was added in a concentration of 1 μM, and the cells were incubated again for 1 day under the condition of 5% CO2 and 37° C. The cells were washed with phosphate-buffered salione (PBS). Proteins were extracted from each cell, the activity of β-galactosidase was assayed, and the amount of protein was measured to determine the transfection efficiency. Further, the degree of transcription for RAR or RXR was analyzed by CAT ELISA (Roche Molecular Biochemicals, Mannheim, Germany).
# RAR β = molecular target: T2, RAR β (Homo sapiens, UniProt P10826); experiment: Activity for RAR β (CAT reporter in HaCaT cells); format: cell-based; conditions: 1 μM, CAT ELISA
# T2 construct: expressed in transfected cells; host or cells: HaCaT
# T2 sequence (P10826 1-455): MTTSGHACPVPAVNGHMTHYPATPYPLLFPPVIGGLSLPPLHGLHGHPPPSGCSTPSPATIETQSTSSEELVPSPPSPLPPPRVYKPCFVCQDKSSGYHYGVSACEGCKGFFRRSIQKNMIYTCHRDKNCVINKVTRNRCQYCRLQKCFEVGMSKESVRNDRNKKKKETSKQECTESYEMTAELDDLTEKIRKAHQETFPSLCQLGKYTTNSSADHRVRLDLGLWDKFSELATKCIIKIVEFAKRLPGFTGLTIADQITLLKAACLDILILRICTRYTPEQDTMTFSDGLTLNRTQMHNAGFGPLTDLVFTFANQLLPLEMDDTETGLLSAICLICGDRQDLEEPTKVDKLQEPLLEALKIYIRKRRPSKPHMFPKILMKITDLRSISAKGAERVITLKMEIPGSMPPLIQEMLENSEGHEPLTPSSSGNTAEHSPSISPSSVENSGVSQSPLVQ
# Protocol: as §1, §2
# RXR α, β, γ = experiment: Activity for RXR (CAT reporter in HaCaT cells); format: cell-based; conditions: 1 μM, CAT ELISA, Control = 1.0
# Protocol: as §1, §2
# [2] = test system: AP-1 (comprising c-Jun protein); experiment: Inhibition of activity of AP-1 protein (Coll-CAT collagenase promoter reporter in HaCaT cells); format: cell-based; conditions: for Relative inhibition against the expression of collagenase / effect on / inhibitory activity against c-Jun (AP-1), in words: HaCaT, Coll-CAT; for effect on / inhibitory activity against c-Jun (AP-1), in words: c-Jun / RAR α cotransfection
# Protocol: AP-1 (comprising c-Jun protein) is a transcription factor inducing the expression of collagenase that is a major cause of skin wrinkles. […] Therefore, studies thereabout were carried out in a similar manner to Experiment 6 as follows.
# Experimental procedure: CAT reporter (Coll-CAT) having the collagenase promoter wherein AP-1 response element (TRE) is contained, was transfected into HaCaT cell line, a skin cancer cell line, using a liposome. Then, the degree of inhibition against the activity of AP-1 by retinol derivatives was measured through CAT ELISA in a similar manner to Experiment 6. Further, the effect of retinol derivatives on the transcriptional activity of c-Jun (a protein that induces transfer of cancer, skin aging and inflammation, and consists of homologous isomers or heterologous isomers), a constitutional element of AP-1, was examined by cotransfecting c-Jun or RAR α expression vector.
# RAR α = molecular target: T3, RAR α (Homo sapiens, UniProt P10276); experiment: Activity for RAR α (CAT reporter in HaCaT cells); format: cell-based; conditions: 1 μM, CAT ELISA
# T3 construct: expressed in transfected cells; host or cells: HaCaT
# T3 sequence (P10276 1-462): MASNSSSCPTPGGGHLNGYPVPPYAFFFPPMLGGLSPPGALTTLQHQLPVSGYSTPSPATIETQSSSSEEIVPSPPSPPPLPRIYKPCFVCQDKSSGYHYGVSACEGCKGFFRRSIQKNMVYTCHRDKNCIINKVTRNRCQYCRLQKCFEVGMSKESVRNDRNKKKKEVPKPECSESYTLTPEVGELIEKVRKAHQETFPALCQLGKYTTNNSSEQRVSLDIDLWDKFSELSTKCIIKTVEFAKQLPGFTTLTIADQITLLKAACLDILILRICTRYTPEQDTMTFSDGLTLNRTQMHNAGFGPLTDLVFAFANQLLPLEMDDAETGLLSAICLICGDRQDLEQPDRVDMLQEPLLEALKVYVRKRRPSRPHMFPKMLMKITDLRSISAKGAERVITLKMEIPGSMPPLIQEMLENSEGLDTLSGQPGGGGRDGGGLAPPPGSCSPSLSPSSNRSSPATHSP
# Protocol: as §1, §2
# skin of normal adults = experiment: Test for skin irritation property (closed patch test); format: in vivo, human; conditions: closed patch test 24 hours, 20 adults
# Protocol: In order to examine the skin irritation of the compound of formula (1), a patch test for the skin of normal adults was carried out. As the carrier, capryl caprylic triglyceride or the conventional O/W formulation was used, and twenty (20) adults per a group were tested for 24 hours.
# The conventional O/W formulation used in the present experiment was prepared according to the following procedure.
# Each of the aqueous part of Nos. 1–6 and the oily part of Nos. 7–13 as shown in the following Table 1 was heated to 75–80° C. to be thoroughly dissolved. The oily part was slowly added to the aqueous part and emulsification was performed for 5 minutes at 75–80° C. in a homomixer of 3000rpm. During the emulsification, the mixture was neutralized by the neutralizing agent of No. 14. After the first emulsification, the mixture was cooled, the retinal retaliate and fragrance of Nos. 15–16 were added at 50–55° C., and then the second emulsification was carried out for 3 minutes in a homomixer of 3000rpm. The mixture was cooled again to 27–30° C. to prepare the composition of O/W formulation.
# From the experimental results, the irritation indexes were calculated according to the following Equation 1 and the results are represented in the following Table 2. Irritation index={Σ(Test Value×Number of Examinees Corresponding to the Test Value)/(Total Examinees×The Maximum Test Value)×100 Equation 1
# Test Value +++: 5, ++: 4, +: 3, +−: 2, −:1
# The degree of irritation was determined according to the following standards:
# 1.9 or less: Minute irritation, 2.0–2.9: Weak irritation, 3.0–3.9: Moderate irritation, 4.0 or more: Strong irritation
# [3] = test system: Normal human fibroblast (Newborn, passage: 6); experiment: Collagen synthesis test (Sircol collagen assay); format: cell-based; conditions: 0.000001%, 0.00001%(w/v); human fibroblast
# Protocol: The effect for collagen synthesis of the compound of formula (1) was examined by using retinol, retinoic acid, and derivatives thereof as comparison compounds to confirm its utility as inhibitors for skin aging as follows. The results are represented in FIG. 2.
# Cell: Normal human fibroblast (Newborn, passage: 6)
# Medium: DMEM containing 10% FBS→DMEM free of FBS was used when cells were treated with samples.
# Concentration: A range of concentration where the samples exert no toxicity to the cells was selected through a cell toxicity test ? 0.000001%, 0.00001%(w/v)
# Procedure: 1×10^5 cells/well were inoculated into a 6-well plate. Cells were cultured to show about 79–80% confluent. Cells were treated with test samples and incubated for 2 days (FBS was not added to the medium when cells were treated with samples). After 2 days, cell medium and cells were separated from each other and respectively stored in a refrigerator. The cell extract was subjected to the protein analysis (BCA Protein Assay Kit, PIERCE 23225) and the medium was subjected to collagen analysis.
# After the medium was removed, a small amount of PBS was added. Cells were scraped with a scraper. 1N NaOH (100 μl) and distilled water (400 μl) were added and the resulting mixture was allowed to stand overnight. Then, the protein analysis was carried out.
# Collagen analysis: Analysis kit (Sircol Collagen assay kit—a dye that specifically combines with soluble collagen is used)
# 1.0 ml of Sircol Dye Reagent was introduced into each tube and mixed for 30 minutes. The mixture was centrifuged for 10 minutes at 5,000 g or more and the supernatant was removed. 1.0 ml Sircol Alkali Reagent was added, slowly mixed, and absorbance at 540 nm was measured. The amount of protein was converted into the value of collagen analysis (see: Mechanism of Aging and Development 73, 179–187, 1994).
# After the above experiment, the increasing ratio for collagen synthesis of the test group over the control group treated only by DMEM was depicted in FIG. 2.
# [4] = Condition of expression: c-Jun + RAR α, untreated = 8.6
# [5] = Condition of expression: c-Jun, untreated = 8.6
# [6] = Condition of expression: — (no c-Jun or RAR α vector), untreated = 1.0
# [7] = Control = 1.0, listed as retinal acetyl salicylate
# [8] = Control = 1.0, listed as retinal salicylate
SMILES,Relative activity against RAR γ (RAR γ; Control = 1.0),Relative activity against RAR β (RAR β; Control = 1.0),"Relative activity against RXR α, β, γ (RXR α, β, γ)","Relative inhibition against the expression of collagenase [2, 4]","Relative inhibition against the expression of collagenase [2, 5]","Relative inhibition against the expression of collagenase [2, 6]",Relative activity against RAR α (RAR α; Control = 1.0),"effect on / inhibitory activity against c-Jun (AP-1), in words [2]",other results
CC1=C(/C=C/C(C)=C/C=C/C(C)=C/C(=O)OC(=O)/C=C(C)/C=C/C=C(C)/C=C/C2=C(C)CCCC2(C)C)C(C)(C)CCC1,–,–,–,–,–,–,–,–,"Photostability level ([1]; After 0 hour, 10 mg sample): 4; Photostability level ([1]; After 2 hours): 3; Photostability level ([1]; After 12 hours): 2; Photostability level ([1]; After 24 hours): 2; Photostability level ([1]; After 48 hours): 2"
CC1=C(/C=C/C(C)=C/C=C/C(C)=C/C(=O)O)C(C)(C)CCC1 [Retinoic acid],3.0,4.0,9.5,3.1,5.4,0.6,37.0,–,inhibition of the expression of collagenase ([2]; cells treated together with RAR α (c-Jun expressed)): about 64%
CCCCCCCCCCCCCCCC(=O)OC/C=C(C)/C=C/C=C(C)/C=C/C1=C(C)CCCC1(C)C [Retinyl Palmitate],–,–,–,–,–,–,–,–,"Degree of Irritation (skin of normal adults; 0.138% in C.C.T): Moderate irritation (3.0–3.9: Moderate irritation); Irritation Index (skin of normal adults; 0.138% in C.C.T): 3.8; Degree of Irritation (skin of normal adults; 0.55% in C.C.T): Strong irritation (4.0 or more: Strong irritation); Irritation Index (skin of normal adults; 0.55% in C.C.T): 4.5; effect for collagen synthesis (FIG. 2), comparison in words [3]: much lower effect for collagen synthesis than retinol"
CC(=O)Oc1ccccc1C(=O)OC/C=C(C)/C=C/C=C(C)/C=C/C1=C(C)CCCC1(C)C [Retinyl acetyl salicylate],1.0,1.0,1.1,8.7,8.5,1.0,2.5,no effect,Relative activity against RAR γ (RAR γ; [7]): no activity; Relative activity against RAR β (RAR β; [7]): no activity; Relative activity against RAR α (RAR α; [7]): low activity
CC1=C(/C=C/C(C)=C/C=C/C(C)=C/COC(=O)c2ccccc2O)C(C)(C)CCC1 [Retinyl salicylate],1.0,1.1,1.0,8.8,8.7,1.0,3.2,no effect,Relative activity against RAR γ (RAR γ; [8]): no activity; Relative activity against RAR β (RAR β; [8]): no activity; Relative activity against RAR α (RAR α; [8]): low activity

# From patent US7173062B2, “Method for the improvement of skin wrinkles using retinyl retinoate” (Enprani Co., Ltd., priority 2001, dated 2007)
